Data set [1] deals with T1, human WT GIP receptor (E354) (Homo sapiens, UniProt P48546).
T1 construct: host or cells: Cos7 cells, transient transfection with PEI, pcDNA3.1+
T1 sequence (P48546 22-466): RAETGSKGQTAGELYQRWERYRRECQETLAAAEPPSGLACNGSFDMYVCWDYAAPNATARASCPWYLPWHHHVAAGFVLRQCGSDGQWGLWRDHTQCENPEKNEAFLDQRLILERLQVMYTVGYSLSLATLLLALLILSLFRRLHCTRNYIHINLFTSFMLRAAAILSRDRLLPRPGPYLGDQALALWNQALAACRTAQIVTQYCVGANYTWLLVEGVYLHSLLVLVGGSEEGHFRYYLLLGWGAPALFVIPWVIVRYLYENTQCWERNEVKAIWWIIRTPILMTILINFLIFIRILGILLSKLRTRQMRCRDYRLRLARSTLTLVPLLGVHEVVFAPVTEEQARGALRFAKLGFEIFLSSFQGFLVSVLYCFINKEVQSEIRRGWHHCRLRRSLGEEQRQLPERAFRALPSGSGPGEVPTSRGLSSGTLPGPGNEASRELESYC
Nature of the data set: AKT phosphorylation (AlphaLISA pAKT Ser473), WT GIP receptor. It is filed as cell-based. The note with it: for Emax: read-out: Emax pAKT. On the procedure: (§1) Using a PCR thermocycler (Applied Biosystems PCR system 9700, ThermoFisher, CA, United States), the DNA was initially denatured at 95°C for 2 min, followed by 25 cycles of 98°C for 30 s, 66°C for 15 s and 72°C for 3.5 min. Following the PCR reaction, 1 μL Dpn1 was added, and the DNA transformed into XL.10-gold Ultracompetent E. coli (Agilent Technologies, CA, United States). Plasmid DNA was purified using the NucleoBond Xtra Maxi kit (Macherey-Nagel, Germany) and sequenced prior to use (Centre for Genomics, Proteomics and Metabolomics, University of Auckland).
(§2) Cos7 cells were cultured and transfected as previously described ([Tasma et al., 2022]; [Bower et al., 2018]). Briefly, Cos7 cells were cultured in DMEM supplemented with 8% fetal bovine serum (FBS) in a 37°C humidified incubator with 5% CO2 and seeded into 96-well SpectraPlates at a density of 20,000 cells per well 24 h prior to transfection. […] All plasmid sequences were verified prior to use.
(§3) Phosphorylated (p) Protein Kinase B (AKT), extracellular signal-regulated kinase 1/2 (ERK1/2) and CREB were detected using the AlphaLISA SureFire Ultra pAKT (Ser473), AlphaLISA SureFire Ultra pERK1/2 (Thr202/Tyr204) or AlphaLISA SureFire Ultra pCREB (Ser133) assay kit (PerkinElmer) as per the manufacturer’s protocol. Briefly, Cos7 cells were serum-starved in assay media (DMEM +0.1% BSA) for 4 h at 37°C with 5% CO2 prior to peptide stimulation. Peptides were serially diluted in assay media, and cells were incubated with assay media alone or each concentration of peptide for 15 min. FBS (50%) in pERK1/2 and pAKT or 50 μM forskolin in pCREB assays were used as positive controls. Media was then aspirated, and the cells were lysed in 40 μL of the kit lysis buffer, followed by shaking for 10–15 min at room temperature. Ten microliters of cell lysate was transferred to a white 384-well OptiPlate. […] Plates were read on an Envision plate reader (PerkinElmer). […]
(§4) All data were plotted and analyzed using GraphPad Prism 8.0 (GraphPad Software Inc.). […]
(In general: Alpha assays give light when donor and acceptor beads are brought close together.)

For data set [2], the target named is T1, human WT GIP receptor (E354). Nature of the data set: CREB phosphorylation (AlphaLISA pCREB Ser133), WT GIP receptor. It is filed as cell-based. The settings on record: for Emax: read-out: Emax pCREB. The protocol:
as §1, §2, §3, §4

For data set [3] the target is unchanged. Nature of the data set: IP1 accumulation (IP-one Gq kit), WT GIP receptor. It counts as cell-based. On the procedure:
as §1
Cos7 cells were cultured and transfected as previously described ([Tasma et al., 2022]; [Bower et al., 2018]). […]
The IP-one Gq assay kit (Cisbio, PerkinElmer) was used to quantify accumulated myo-inositol-1-phosphate (IP1), a by-product of IP3 produced after receptor-mediated Gαq activation in Cos7 cells, as previously described ([Tasma et al., 2022]; [Bower et al., 2018]). […] Samples were processed as previously described and read using an Envision plate reader (PerkinElmer). IP1 concentrations were determined from a standard curve generated in duplicate.
as §4

For data set [4], the target named is T2, human GIP receptor E354Q variant (Homo sapiens, UniProt P48546, E354Q).
T2 construct: expressed in transfected cells; host or cells: Cos7 cells, transient transfection with PEI, pcDNA3.1+; mutant plasmid made in house from the purchased WT construct
T2 sequence (P48546 22-466 E354Q): T1 sequence (P48546 22-466) with E333Q
As to the kind of experiment: ERK1/2 phosphorylation (AlphaLISA pERK1/2 Thr202/Tyr204), E354Q GIP receptor. It is filed as cell-based. The note with it: read-out: Emax pERK1/2. The protocol:
as §1
(§5) Cos7 cells were cultured and transfected as previously described ([Tasma et al., 2022]; [Bower et al., 2018]). Briefly, Cos7 cells were cultured in DMEM supplemented with 8% fetal bovine serum (FBS) in a 37°C humidified incubator with 5% CO2 and seeded into 96-well SpectraPlates at a density of 20,000 cells per well 24 h prior to transfection. […]
(§6) Phosphorylated (p) Protein Kinase B (AKT), extracellular signal-regulated kinase 1/2 (ERK1/2) and CREB were detected using the AlphaLISA SureFire Ultra pAKT (Ser473), AlphaLISA SureFire Ultra pERK1/2 (Thr202/Tyr204) or AlphaLISA SureFire Ultra pCREB (Ser133) assay kit (PerkinElmer) as per the manufacturer’s protocol. […] Plates were read on an Envision plate reader (PerkinElmer). […]
as §4

The target in data set [5] is T2, human GIP receptor E354Q variant. Nature of the data set: CREB phosphorylation (AlphaLISA pCREB Ser133), E354Q GIP receptor. It is filed as cell-based. The settings on record: read-out: Emax pCREB. The protocol: as §1, §5, §6, §4
For data set [6] the target is unchanged. As to the kind of experiment: AKT phosphorylation (AlphaLISA pAKT Ser473), E354Q GIP receptor. The settings on record: for Emax: read-out: Emax pAKT. It counts as cell-based. The protocol: as §1, §2, §3, §4
For another data set, the system named is albumin. The note with it: cited from earlier work. An excerpt: Understanding the signalling of GIP receptors is essential to elucidating their physiological effects and exploiting this receptor as a drug target. The GIP receptor is often reported to couple to Gαs alone ([Oduori et al., 2020b]). […] This indicates potential coupling to Gαq, as IP1 is a stable by-product of IP3 ([Garbison et al., 2004]). The induction of cAMP accumulation by the endogenous GIP agonists was similar to previous studies ([Hansen et al., 2016]; [Yuliantie et al., 2021]). Tirzep ...

For data set [7], the target named is T1, human WT GIP receptor (E354). Nature of the data set: ERK1/2 phosphorylation (AlphaLISA pERK1/2 Thr202/Tyr204), WT GIP receptor. It counts as cell-based. The note with it: read-out: Emax pERK1/2. On the procedure: as §1, §5, §6, §4

Where a chain is given by its changes, count along the chain named.

Regarding `CC[C@H](C)[C@H](NC(=O)[C@H](CC(C)C)NC(=O)[C@H](Cc1c[nH]c2ccccc12)NC(=O)[C@H](CCC(N)=O)NC(=O)[C@@H](NC(=O)[C@H](Cc1ccccc1)NC(=O)[C@H](C)NC(=O)[C@H](CCCCNC(=O)COCCOCCNC(=O)COCCOCCNC(=O)CC[C@H](NC(=O)CCCCCCCCCCCCCCCCCCC(=O)O)C(=O)O)NC(=O)[C@H](CCC(N)=O)NC(=O)[C@H](C)NC(=O)[C@@H](NC(=O)[C@H](CCCCN)NC(=O)[C@H](CC(=O)O)NC(=O)[C@H](CC(C)C)NC(=O)C(C)(C)NC(=O)[C@@H](NC(=O)[C@H](CO)NC(=O)[C@H](Cc1ccc(O)cc1)NC(=O)[C@H](CC(=O)O)NC(=O)[C@H](CO)NC(=O)[C@@H](NC(=O)[C@H](Cc1ccccc1)NC(=O)[C@@H](NC(=O)CNC(=O)[C@H](CCC(=O)O)NC(=O)C(C)(C)NC(=O)[C@@H](N)Cc1ccc(O)cc1)[C@@H](C)O)[C@@H](C)O)[C@@H](C)CC)[C@@H](C)CC)C(C)C)C(=O)N[C@@H](C)C(=O)NCC(=O)NCC(=O)N1CCC[C@H]1C(=O)N[C@@H](CO)C(=O)N[C@@H](CO)C(=O)NCC(=O)N[C@@H](C)C(=O)N1CCC[C@H]1C(=O)N1CCC[C@H]1C(=O)N1CCC[C@H]1C(=O)N[C@@H](CO)C(N)=O` [Tirzepatide], the Emax in data set [1] was found to be 87.7 ± 2.6%; in data set [2] it was 91.5 ± 10.9%; in data set [3] (read-out: Emax IP1, % of maximal response), 54.9%; in data set [4], 80.2 ± 17.3%; in data set [5] it was 59.4 ± 34.8%; in data set [6] it was 51.9 ± 8.95%. Moreover, in the data set on albumin, the albumin binding entry is “binds to albumin”.

For `CC[C@H](C)[C@H](NC(=O)[C@H](CO)NC(=O)[C@H](Cc1ccc(O)cc1)NC(=O)[C@H](CC(=O)O)NC(=O)[C@H](CO)NC(=O)[C@@H](NC(=O)[C@H](Cc1ccccc1)NC(=O)[C@@H](NC(=O)CNC(=O)[C@H](CCC(=O)O)NC(=O)[C@H](C)NC(=O)[C@@H](N)Cc1ccc(O)cc1)[C@@H](C)O)[C@@H](C)CC)C(=O)N[C@@H](C)C(=O)N[C@@H](CCSC)C(=O)N[C@@H](CC(=O)O)C(=O)N[C@@H](CCCCN)C(=O)N[C@H](C(=O)N[C@@H](Cc1c[nH]cn1)C(=O)N[C@@H](CCC(N)=O)C(=O)N[C@@H](CCC(N)=O)C(=O)N[C@@H](CC(=O)O)C(=O)N[C@@H](Cc1ccccc1)C(=O)N[C@H](C(=O)N[C@@H](CC(N)=O)C(=O)N[C@@H](Cc1c[nH]c2ccccc12)C(=O)N[C@@H](CC(C)C)C(=O)N[C@@H](CC(C)C)C(=O)N[C@@H](C)C(=O)N[C@@H](CCC(N)=O)C(=O)N[C@@H](CCCCN)C(N)=O)C(C)C)[C@@H](C)CC` [GIP(1-30)NH2], the EC50 in data set [1] (WT, Cos7, 15 min, DMEM + 0.1% BSA, mean ± s.e.m., n = 3) is 1.48 nM; in data set [2] (WT, Cos7, 15 min, DMEM + 0.1% BSA, mean ± s.e.m., n = 3, read-out: pEC50 pCREB (converted)), 0.0631 nM; in data set [3] (WT, Cos7, 90 min, 37°C, DMEM + 0.1% BSA + 1% 10 mM LiCl, mean ± s.e.m., n = 5, read-out: pEC50 IP1 (converted)) it was 1.62 nM; in data set [6] (E354Q, Cos7, 15 min, DMEM + 0.1% BSA, mean ± s.e.m., n = 3) it was 0.813 nM. For the same compound, the Emax was determined as 97.1 ± 4.56% in data set [1]; 117 ± 8.75% in data set [2]; 73.9 ± 9.75% in data set [4]; 70.7 ± 32.9% in data set [5]; 117 ± 3.91% in data set [7]; 50.9 ± 1.72% in data set [6].

The values above are taken from article PMC11502443 (Frontiers in Pharmacology, 2024).
